# Columns and labels:
# [1] = test system: normal human epidermal keratinocytes (NHEK); test: Calcium ion permeation through cultured normal human epidermal keratinocyte layer (Transwell, Arsenazo III quantification); assay type: cell-based; settings: 10^-1% test substance; calcium loaded concentration 5 mM; control = test substance concentration 0; FIG. 5/FIG. 6
# Protocol: Frozen normal human epidermal keratinocytes (NHEK) (manufactured by Kurabo Industries Ltd.) were thawed and cultured in a 0.15 mM Ca-containing culture medium (Humedia-KG2; manufactured by Kurabo Industries Ltd.) at 37° C. in 50% carbon dioxide atmosphere. A Transwell (registered trademark) manufactured by Corning Incorporated (diameter 12 mm, polyethylene terephthalate, 0.4 μm pore) was placed on a Millicell (registered trademark) tissue culture plate (manufactured by Millipore), and the above-mentioned culture medium was added in amounts of 1.5 ml to the lower layer and 0.5 ml to the upper layer. […]
# The recovered samples were quantified with quantification reagents {Ca-Arsenazo-III, Mg-Xylidyl blue I (both are manufactured by Fluka)}. […] The net flux (mass transfer per unit time and unit area) was calculated from the quantification results, and Ca and Mg ion permeability coefficients were calculated by the following formula.
# a) 7.76 mg of Arsenazo III was dissolved in 100 μl of 1N NaOH, and the volume of the solution was adjusted to 50 ml with the apical solution for Ca prepared in Table 1 (Ca quantification solution). […]
# c) In order to quantify Ca in a sample, the Ca quantification solution and the sample were each added to the plate in an amount of 50 μl/well to measure ODs (600). […]
# [2] = test system: normal human epidermal keratinocytes (NHEK); test: TER (transepithelial electrical resistance) of cultured normal human epidermal keratinocyte layer; assay type: cell-based; settings: 10^-4 v/v % in culture medium; TER measured at addition and 1, 2, 3, 4 days later; FIG. 7
# Protocol: Frozen normal human epidermal keratinocytes (NHEK) (manufactured by Kurabo Industries Ltd.) were thawed and cultured in a 0.15 mM Ca-containing culture medium (Humedia-KG2; manufactured by Kurabo Industries Ltd.) at 37° C. in […] atmosphere. A Transwell manufactured by Corning Incorporated (diameter 12 mm, polyethylene terephthalate, 0.4 μm pore) was placed on a Millicell tissue culture plate (manufactured by Millipore), and the above-mentioned culture medium was added in amounts of 0.5 ml to the upper layer and 1.5 ml to the lower layer. Then, the normal human epidermal keratinocytes (NHEK) were inoculated at 1×10^5/cm^2 and cultured for additional 72 hours. […] Thereafter, the medium was exchanged for a culture medium containing 10^−4 v/v % α,ε-bis(γ-N-lauroylglutamyl)lysine (Pellicer L-30 (registered trademark) (hereinafter, referred to as Pellicer); manufactured by Asahi Kasei Corporation), and TERs were measured. The culture was further continued, and one, two, three, and four days later, TERs were measured.
# Frozen normal human epidermal keratinocytes (NHEK) (manufactured by Kurabo Industries Ltd.) were thawed and cultured in a 0.15 mM Ca-containing culture medium (Humedia-KG2; manufactured by Kurabo Industries Ltd.) at 37° C. in 50% carbon dioxide atmosphere. […] The culture was further continued, and one, two, three, and four days later, TERs were measured.
SMILES,inhibition of the transference of a calcium ion (calcium ion permeation ratio vs control) [1],TER (resistance value) compared with the control [2]
"N[C@@H](CCCCNC(=O)CC[C@H](N)C(=O)O)C(=O)O [ε,γ-glutamyl lysine]",had ability to inhibit the transference of the calcium ion,
"C[N+](C)(C)C[C@H](O)CC(=O)[O-] [L-carnitine, reference compound]",had ability to inhibit the transference of a calcium ion,
"CCCCCCCCCCCC(=O)N[C@@H](CCC(=O)NCCCC[C@H](NC(=O)CC[C@H](NC(=O)CCCCCCCCCCC)C(=O)O)C(=O)O)C(=O)O [Pellicer, α,ε-bis(γ-N-lauroylglutamyl)lysine]",,increased resistance value compared with the control
